The source of these data is article doi:10.1101/2024.08.13.607785v1 (biorxiv, 2024).

Common to all, as to assay: biochemical
What all share (parameters): species or system human cell line lysate

Assay [1] has as its target Mitogen-activated protein kinase 10 ; MAPK10 ; P53779 (Homo sapiens, UniProt P53779).
Assay [2] deals with Tyrosine-protein kinase JAK1 ; JAK1 ; P23458 (Homo sapiens, UniProt P23458).
Assay [3] deals with T1, Ephrin type-B receptor 1 ; EPHB1 ; P54762 (Homo sapiens, UniProt P54762).
T1 sequence (P54762 1-984): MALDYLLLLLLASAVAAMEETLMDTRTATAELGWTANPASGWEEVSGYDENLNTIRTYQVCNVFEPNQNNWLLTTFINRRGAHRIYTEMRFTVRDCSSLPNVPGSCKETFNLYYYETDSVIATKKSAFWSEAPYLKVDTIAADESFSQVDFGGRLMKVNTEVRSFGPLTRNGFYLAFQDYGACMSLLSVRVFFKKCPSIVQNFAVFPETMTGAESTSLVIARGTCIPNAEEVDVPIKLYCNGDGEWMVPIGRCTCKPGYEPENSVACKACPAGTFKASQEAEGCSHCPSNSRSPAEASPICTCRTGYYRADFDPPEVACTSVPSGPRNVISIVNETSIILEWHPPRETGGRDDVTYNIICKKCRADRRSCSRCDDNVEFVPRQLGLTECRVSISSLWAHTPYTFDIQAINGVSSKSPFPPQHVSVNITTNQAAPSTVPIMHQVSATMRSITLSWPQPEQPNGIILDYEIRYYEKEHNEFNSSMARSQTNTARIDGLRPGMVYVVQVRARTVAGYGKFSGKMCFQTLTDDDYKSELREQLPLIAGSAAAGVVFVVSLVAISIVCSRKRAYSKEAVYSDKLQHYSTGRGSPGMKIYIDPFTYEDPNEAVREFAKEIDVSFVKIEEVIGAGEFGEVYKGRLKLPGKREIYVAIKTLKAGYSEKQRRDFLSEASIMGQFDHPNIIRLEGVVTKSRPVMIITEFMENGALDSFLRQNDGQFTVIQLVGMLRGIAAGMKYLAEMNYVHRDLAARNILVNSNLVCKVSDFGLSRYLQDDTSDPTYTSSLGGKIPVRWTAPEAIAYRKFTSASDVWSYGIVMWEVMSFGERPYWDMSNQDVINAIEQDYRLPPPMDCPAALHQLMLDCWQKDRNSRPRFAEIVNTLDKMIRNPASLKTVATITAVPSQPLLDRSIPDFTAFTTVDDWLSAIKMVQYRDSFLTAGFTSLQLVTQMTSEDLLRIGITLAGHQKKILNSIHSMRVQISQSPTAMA

Assay [4] has as its target Deoxycytidine kinase ; DCK ; P27707 (Homo sapiens, UniProt P27707).
The target in assay [5] is Isoform 3 of Citron Rho-interacting kinase ; CIT ; O14578-3 (Homo sapiens, UniProt O14578).
Assay [6] has as its target Serine-protein kinase ATM ; ATM ; Q13315 (Homo sapiens, UniProt Q13315).
The target in assay [7] is Activin receptor type-1 ; ACVR1 ; Q04771 (Homo sapiens, UniProt Q04771).
Sequence of Activin receptor type-1 ; ACVR1 ; Q04771 (Q04771 whole entry): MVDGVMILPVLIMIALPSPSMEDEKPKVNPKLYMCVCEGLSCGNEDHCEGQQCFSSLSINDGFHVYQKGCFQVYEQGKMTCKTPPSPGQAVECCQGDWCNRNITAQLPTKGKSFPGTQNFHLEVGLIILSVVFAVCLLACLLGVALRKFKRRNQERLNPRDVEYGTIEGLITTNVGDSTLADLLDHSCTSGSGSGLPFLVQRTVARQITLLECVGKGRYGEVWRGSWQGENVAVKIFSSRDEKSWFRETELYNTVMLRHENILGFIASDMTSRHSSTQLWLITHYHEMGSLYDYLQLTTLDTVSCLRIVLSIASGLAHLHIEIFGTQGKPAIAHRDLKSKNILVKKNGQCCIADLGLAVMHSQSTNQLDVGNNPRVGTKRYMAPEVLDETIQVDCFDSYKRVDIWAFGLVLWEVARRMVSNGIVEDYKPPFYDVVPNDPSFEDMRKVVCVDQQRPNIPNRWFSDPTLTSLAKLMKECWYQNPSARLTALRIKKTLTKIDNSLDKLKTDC
For assay [8], the target named is Mitogen-activated protein kinase 9 ; MAPK9 ; P45984 (Homo sapiens, UniProt P45984).
The target of assay [9] is cAMP-dependent protein kinase catalytic subunit alpha ; PRKACA ; P17612 (Homo sapiens, UniProt P17612).
The target of assay [10] is Isoform 4 of Casein kinase I isoform gamma-3 ; CSNK1G3 ; Q9Y6M4-4 (Homo sapiens, UniProt Q9Y6M4).
For assay [11], the target named is Atypical kinase COQ8A, mitochondrial ; COQ8A ; Q8NI60 (Homo sapiens, UniProt Q8NI60).
Assay [12] deals with Beta-adrenergic receptor kinase 2 ; GRK3 ; P35626 (Homo sapiens, UniProt P35626).
Sequence of Beta-adrenergic receptor kinase 2 ; GRK3 ; P35626 (P35626 whole entry): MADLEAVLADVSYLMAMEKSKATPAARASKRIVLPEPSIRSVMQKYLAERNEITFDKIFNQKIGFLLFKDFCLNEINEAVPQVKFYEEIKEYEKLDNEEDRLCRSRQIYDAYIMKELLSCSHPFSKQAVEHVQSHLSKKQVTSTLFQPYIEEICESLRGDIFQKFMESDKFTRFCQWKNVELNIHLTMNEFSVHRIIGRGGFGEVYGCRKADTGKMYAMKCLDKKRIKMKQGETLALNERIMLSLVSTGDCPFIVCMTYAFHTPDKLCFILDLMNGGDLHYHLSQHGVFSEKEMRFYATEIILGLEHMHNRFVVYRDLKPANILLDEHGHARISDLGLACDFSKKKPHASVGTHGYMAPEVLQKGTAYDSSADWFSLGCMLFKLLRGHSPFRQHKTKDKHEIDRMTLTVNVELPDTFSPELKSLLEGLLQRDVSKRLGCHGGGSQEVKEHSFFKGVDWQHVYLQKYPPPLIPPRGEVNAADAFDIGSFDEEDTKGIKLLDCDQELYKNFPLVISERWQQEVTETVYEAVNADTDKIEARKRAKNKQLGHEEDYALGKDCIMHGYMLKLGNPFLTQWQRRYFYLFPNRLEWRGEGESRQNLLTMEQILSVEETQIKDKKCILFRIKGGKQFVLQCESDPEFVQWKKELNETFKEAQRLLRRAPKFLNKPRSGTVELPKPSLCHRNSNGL
Assay [13] concerns the target Phosphatidylinositol 4-kinase alpha ; PI4KA ; P42356 (Homo sapiens, UniProt P42356).
Assay [14] deals with Mitogen-activated protein kinase kinase kinase 15 ; MAP3K15 ; Q6ZN16 (Homo sapiens, UniProt Q6ZN16).
Sequence of Mitogen-activated protein kinase kinase kinase 15 ; MAP3K15 ; Q6ZN16 (Q6ZN16 whole entry): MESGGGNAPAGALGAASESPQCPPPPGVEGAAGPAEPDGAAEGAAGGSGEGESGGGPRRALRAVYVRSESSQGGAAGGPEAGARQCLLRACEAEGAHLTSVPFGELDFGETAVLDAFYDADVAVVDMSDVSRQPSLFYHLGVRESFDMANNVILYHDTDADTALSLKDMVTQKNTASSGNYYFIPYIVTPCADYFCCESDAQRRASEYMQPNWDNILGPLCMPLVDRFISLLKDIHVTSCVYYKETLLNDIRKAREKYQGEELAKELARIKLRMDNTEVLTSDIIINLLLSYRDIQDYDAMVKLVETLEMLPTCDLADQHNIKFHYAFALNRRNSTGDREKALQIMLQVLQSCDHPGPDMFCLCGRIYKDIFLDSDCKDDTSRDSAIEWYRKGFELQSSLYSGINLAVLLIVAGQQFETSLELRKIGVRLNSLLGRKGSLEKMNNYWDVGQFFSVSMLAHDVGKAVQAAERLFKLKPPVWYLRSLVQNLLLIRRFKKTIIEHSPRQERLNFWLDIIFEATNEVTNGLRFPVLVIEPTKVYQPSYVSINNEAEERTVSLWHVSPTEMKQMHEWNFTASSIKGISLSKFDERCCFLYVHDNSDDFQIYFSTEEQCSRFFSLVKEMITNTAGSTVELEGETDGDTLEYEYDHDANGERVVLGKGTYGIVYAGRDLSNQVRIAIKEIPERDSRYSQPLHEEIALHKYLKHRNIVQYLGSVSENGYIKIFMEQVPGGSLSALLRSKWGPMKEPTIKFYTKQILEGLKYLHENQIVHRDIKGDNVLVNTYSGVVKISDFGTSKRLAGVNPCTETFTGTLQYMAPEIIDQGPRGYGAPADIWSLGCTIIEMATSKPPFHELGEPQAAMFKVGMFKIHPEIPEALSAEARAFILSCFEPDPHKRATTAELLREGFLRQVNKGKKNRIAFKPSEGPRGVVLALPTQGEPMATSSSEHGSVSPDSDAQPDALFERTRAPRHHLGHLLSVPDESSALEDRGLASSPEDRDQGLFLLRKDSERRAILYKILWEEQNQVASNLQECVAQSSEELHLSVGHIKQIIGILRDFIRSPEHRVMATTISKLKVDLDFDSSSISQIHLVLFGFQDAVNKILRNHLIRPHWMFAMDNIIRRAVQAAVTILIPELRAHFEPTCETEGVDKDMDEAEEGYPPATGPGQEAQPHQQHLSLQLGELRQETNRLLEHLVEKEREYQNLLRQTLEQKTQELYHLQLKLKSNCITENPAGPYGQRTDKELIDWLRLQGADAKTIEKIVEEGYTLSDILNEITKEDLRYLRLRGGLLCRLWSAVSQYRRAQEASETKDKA
Assay [15] has as its target Rho-associated protein kinase 2 ; ROCK2 ; O75116 (Homo sapiens, UniProt O75116).
The target of assay [16] is Casein kinase I isoform delta ; CSNK1D ; P48730 (Homo sapiens, UniProt P48730).
Where [17] appears, read: read-out: BAY-1143572 (10 µM) / %Intensity relative to DMSO.
Where [18] appears, read: read-out: BAY-1251152 (10 µM) / %Intensity relative to DMSO.

Where two headings read alike, the source gives them in different places.

Sequence of Tyrosine-protein kinase JAK1 ; JAK1 ; P23458 (P23458 whole entry): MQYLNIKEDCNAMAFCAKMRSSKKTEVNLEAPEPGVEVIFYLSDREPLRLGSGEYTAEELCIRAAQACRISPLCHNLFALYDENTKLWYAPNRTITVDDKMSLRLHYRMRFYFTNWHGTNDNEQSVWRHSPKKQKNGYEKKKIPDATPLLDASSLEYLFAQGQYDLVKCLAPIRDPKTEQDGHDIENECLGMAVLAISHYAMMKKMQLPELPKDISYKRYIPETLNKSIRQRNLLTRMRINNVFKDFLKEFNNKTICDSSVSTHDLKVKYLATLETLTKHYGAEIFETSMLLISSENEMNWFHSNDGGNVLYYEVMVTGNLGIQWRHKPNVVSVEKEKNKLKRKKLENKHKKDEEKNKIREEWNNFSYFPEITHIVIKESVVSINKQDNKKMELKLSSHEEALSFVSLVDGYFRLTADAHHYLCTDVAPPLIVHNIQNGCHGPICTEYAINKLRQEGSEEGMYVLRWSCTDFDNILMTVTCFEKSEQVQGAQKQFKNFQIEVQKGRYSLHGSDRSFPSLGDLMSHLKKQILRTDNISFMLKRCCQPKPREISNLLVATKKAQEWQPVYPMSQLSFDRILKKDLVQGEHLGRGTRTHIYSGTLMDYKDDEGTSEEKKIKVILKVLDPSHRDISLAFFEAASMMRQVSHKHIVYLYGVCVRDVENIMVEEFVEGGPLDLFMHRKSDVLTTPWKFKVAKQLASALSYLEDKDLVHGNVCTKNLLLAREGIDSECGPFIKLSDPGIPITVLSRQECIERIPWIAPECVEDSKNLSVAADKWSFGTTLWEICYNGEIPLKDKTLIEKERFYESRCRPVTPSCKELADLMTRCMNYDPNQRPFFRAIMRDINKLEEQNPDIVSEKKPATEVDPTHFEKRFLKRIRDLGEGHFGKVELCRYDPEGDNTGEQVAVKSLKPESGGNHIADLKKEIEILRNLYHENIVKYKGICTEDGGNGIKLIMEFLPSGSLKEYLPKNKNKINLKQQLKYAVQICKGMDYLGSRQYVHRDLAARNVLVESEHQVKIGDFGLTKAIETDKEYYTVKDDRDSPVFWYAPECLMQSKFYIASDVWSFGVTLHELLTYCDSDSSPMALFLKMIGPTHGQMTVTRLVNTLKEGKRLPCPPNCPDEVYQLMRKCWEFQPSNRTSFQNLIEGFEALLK
Sequence of Rho-associated protein kinase 2 ; ROCK2 ; O75116 (O75116 whole entry, canonical isoform): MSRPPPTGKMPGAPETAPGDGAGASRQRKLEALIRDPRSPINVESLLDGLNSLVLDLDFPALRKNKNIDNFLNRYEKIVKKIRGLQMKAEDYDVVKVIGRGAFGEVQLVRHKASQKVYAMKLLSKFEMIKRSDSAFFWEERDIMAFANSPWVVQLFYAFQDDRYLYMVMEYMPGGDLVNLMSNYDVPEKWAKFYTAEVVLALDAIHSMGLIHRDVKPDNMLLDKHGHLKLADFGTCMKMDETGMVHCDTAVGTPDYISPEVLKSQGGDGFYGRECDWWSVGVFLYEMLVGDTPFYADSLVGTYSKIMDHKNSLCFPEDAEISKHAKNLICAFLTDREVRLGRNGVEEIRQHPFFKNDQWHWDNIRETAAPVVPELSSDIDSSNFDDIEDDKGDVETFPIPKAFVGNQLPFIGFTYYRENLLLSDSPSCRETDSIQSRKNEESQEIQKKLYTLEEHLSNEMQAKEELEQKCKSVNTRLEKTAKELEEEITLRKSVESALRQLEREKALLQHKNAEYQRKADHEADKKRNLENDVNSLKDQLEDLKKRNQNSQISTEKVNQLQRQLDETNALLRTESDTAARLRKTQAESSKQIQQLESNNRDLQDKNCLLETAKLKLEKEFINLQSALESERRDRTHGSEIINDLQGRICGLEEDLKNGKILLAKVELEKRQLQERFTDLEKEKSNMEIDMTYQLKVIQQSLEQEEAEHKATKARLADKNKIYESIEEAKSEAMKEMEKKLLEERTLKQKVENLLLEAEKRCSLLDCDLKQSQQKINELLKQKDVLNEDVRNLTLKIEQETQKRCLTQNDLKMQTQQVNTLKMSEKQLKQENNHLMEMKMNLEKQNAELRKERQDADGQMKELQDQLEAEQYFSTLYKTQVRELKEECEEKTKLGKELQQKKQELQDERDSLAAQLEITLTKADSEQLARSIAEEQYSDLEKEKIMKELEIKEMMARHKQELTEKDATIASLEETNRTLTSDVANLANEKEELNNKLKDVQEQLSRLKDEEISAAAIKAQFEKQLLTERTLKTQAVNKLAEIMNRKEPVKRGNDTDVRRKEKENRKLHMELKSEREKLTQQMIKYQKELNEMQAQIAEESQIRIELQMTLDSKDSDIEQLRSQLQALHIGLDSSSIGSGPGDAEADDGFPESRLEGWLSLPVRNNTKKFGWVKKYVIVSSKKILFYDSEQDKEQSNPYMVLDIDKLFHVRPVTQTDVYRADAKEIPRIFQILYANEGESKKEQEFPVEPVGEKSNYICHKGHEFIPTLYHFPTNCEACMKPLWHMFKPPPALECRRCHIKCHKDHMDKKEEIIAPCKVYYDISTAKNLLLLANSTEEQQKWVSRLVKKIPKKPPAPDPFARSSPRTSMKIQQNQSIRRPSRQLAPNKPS

Consider `COc1cc(F)ccc1-c1ncnc(Nc2cccc(C[S@](C)(=N)=O)c2)n1` [BAY-1143572], for which the remaining activity at 10 µM in [1] (setting [17]) was determined as 119%; in assay [2] (setting [17]) it was 104%; in assay [3] (setting [17]), 91.7%; in [4] (setting [17]), 121%; in [5] (setting [17]), 99.1%; in assay [6] (setting [17]), 110%. The remaining activity at 10 µM turned out to be 87.7% in assay [7] (setting [17]); 178% in assay [8] (setting [17]); 115% in assay [9] (setting [17]); 113% in [10] (setting [17]); 106% in assay [11] (setting [17]); 88.8% in assay [12] (setting [17]). In addition, the remaining activity at 10 µM in assay [13] (setting [17]) was 96.8%; in [14] (setting [17]), 91.7%; in [15] (setting [17]), 120%; in [16] (setting [17]), 121%.
Turning to `COc1cc(F)ccc1-c1cc(Nc2cc(CS(C)(=N)=O)ccn2)ncc1F` (centres unmarked) [BAY-1251152], the remaining activity at 10 µM in [1] (setting [18]) came to 108%; in assay [2] (setting [18]) it was 110%; in [3] (setting [18]), 108%; in assay [4] (setting [18]) it was 108%; in assay [5] (setting [18]) it was 89.3%; in assay [6] (setting [18]) it was 115%. Also, the remaining activity at 10 µM in assay [7] (setting [18]) is 99.3%; in [8] (setting [18]), 142%; in assay [9] (setting [18]) it was 101%; in [10] (setting [18]), 110%; in [11] (setting [18]), 113%; in assay [12] (setting [18]) it was 83.7%. The remaining activity at 10 µM in assay [13] (setting [18]) is 100%; in assay [14] (setting [18]) it was 95%; in assay [15] (setting [18]) it was 110%; in assay [16] (setting [18]), 117%.
